Values joined by “and” are separate entries in the source; they are usually repeats but may differ in a detail not shown here. Identical values can stand only once. HELM strings list units from the 5' end as sugar, base in round brackets, then linkage (d deoxyribose, r ribose, m 2'-O-methyl, p phosphodiester). Methylation of C is not given here. [moe] = 2'-O-(2-methoxyethyl) (MOE); [cEt] = constrained ethyl (cEt); [sp] = phosphorothioate linkage
Target: HBV
Settings: ASO

RNA1{[moe](A)[sp].[moe](G)[sp].d(A)[sp].d(T)[sp].d(G)[sp].d(A)[sp].d(G)[sp].d(G)[sp].d(C)[sp].d(A)[sp].d(T)[sp].[moe](A)[sp].[moe](G)[sp].[moe](C)[sp].[moe](A)[sp].[moe](G)[sp].[moe](C)}$$$$V2.0
target mRNA inhibition (HepG2, 0.07 µM): 76% and 78%

RNA1{[moe](A)[sp].[moe](C)[sp].[moe](T)[sp].d(A)[sp].d(G)[sp].d(T)[sp].d(A)[sp].d(A)[sp].d(A)[sp].d(C)[sp].d(T)[sp].d(G)[sp].[moe](A)[sp].[moe](G)[sp].[moe](C)[sp].[moe](C)}$$$$V2.0
target mRNA inhibition (HepG2, 0.07 µM): 64% and 69%

RNA1{[moe](A)[sp].[moe](G)[sp].[moe](A)[sp].[moe](T)[sp].d(G)[sp].d(A)[sp].d(G)[sp].d(G)[sp].d(C)[sp].d(A)[sp].d(T)[sp].d(A)[sp].d(G)[sp].[moe](C)[sp].[moe](A)[sp].[moe](G)[sp].[moe](C)}$$$$V2.0
target mRNA inhibition (HepG2, 0.07 µM): 45% and 40%

RNA1{[moe](A)[sp].[cEt](G)[sp].[cEt](A)[sp].d(A)[sp].d(G)[sp].d(A)[sp].d(T)[sp].d(G)[sp].d(A)[sp].d(G)[sp].d(G)[sp].d(C)[sp].d(A)[sp].[cEt](T)[sp].[cEt](A)[sp].[moe](G)}$$$$V2.0
target mRNA inhibition (HepG2, 0.07 µM): 64% and 63%

RNA1{[moe](A)[sp].[moe](A)[sp].[moe](C)[sp].[moe](T)[sp].[moe](G)[sp].d(G)[sp].d(A)[sp].d(G)[sp].d(C)[sp].d(C)[sp].d(A)[sp].d(C)[sp].d(C)[sp].d(A)[sp].[moe](G)[sp].[moe](C)}$$$$V2.0
target mRNA inhibition (HepG2, 0.07 µM): 50% and 39%

RNA1{[moe](G)[sp].[moe](G)[sp].d(T)[sp].d(G)[sp].d(A)[sp].d(A)[sp].d(G)[sp].d(C)[sp].d(G)[sp].d(A)[sp].d(A)[sp].[moe](G)[sp].[moe](T)[sp].[moe](G)[sp].[moe](C)[sp].[moe](A)[sp].[moe](C)}$$$$V2.0
target mRNA inhibition (HepG2, 0.07 µM): 77% and 71%

RNA1{[moe](G)[sp].[moe](G)[sp].[moe](T)[sp].[moe](G)[sp].[moe](A)[sp].d(A)[sp].d(G)[sp].d(C)[sp].d(G)[sp].d(A)[sp].d(A)[sp].d(G)[sp].d(T)[sp].d(G)[sp].[moe](C)[sp].[moe](A)}$$$$V2.0
target mRNA inhibition (HepG2, 0.07 µM): 51% and 46%

RNA1{[moe](T)[sp].[cEt](G)[sp].d(A)[sp].d(G)[sp].d(G)[sp].d(C)[sp].d(A)[sp].d(T)[sp].d(A)[sp].d(G)[sp].d(C)[sp].d(A)[sp].[cEt](G)[sp].[moe](C)[sp].[cEt](A)[sp].[moe](G)}$$$$V2.0
target mRNA inhibition (HepG2, 0.07 µM): 69% and 75%

RNA1{[moe](A)[sp].[moe](G)[sp].d(A)[sp].d(G)[sp].d(A)[sp].d(A)[sp].d(G)[sp].d(T)[sp].d(C)[sp].d(C)[sp].d(A)[sp].[moe](C)[sp].[moe](C)[sp].[moe](A)[sp].[moe](C)[sp].[moe](G)[sp].[moe](A)}$$$$V2.0
target mRNA inhibition (HepG2, 0.07 µM): 39% and 27%

RNA1{[moe](A)[sp].[moe](A)[sp].[moe](G)[sp].[moe](C)[sp].[moe](G)[sp].[moe](A)[sp].d(A)[sp].d(G)[sp].d(T)[sp].d(G)[sp].d(C)[sp].d(A)[sp].d(C)[sp].d(A)[sp].d(C)[sp].[moe](G)[sp].[moe](G)}$$$$V2.0
target mRNA inhibition (HepG2, 0.0092593 µM): 20% | target mRNA inhibition (HepG2, 0.0277778 µM): 36% | target mRNA inhibition (HepG2, 0.07 µM): 92% and 73% | target mRNA inhibition (HepG2, 0.0833333 µM): 54% | target mRNA inhibition (HepG2, 0.25 µM): 76%

RNA1{[moe](T)[sp].[cEt](G)[sp].d(A)[sp].d(G)[sp].d(A)[sp].d(G)[sp].d(A)[sp].d(A)[sp].d(G)[sp].d(T)[sp].d(C)[sp].d(C)[sp].[cEt](A)[sp].[moe](C)[sp].[cEt](C)[sp].[moe](A)}$$$$V2.0
target mRNA inhibition (HepG2, 0.07 µM): 60% and 43%

RNA1{[moe](A)[sp].[moe](T)[sp].[moe](T)[sp].d(T)[sp].d(A)[sp].d(T)[sp].d(G)[sp].d(C)[sp].d(C)[sp].d(T)[sp].d(A)[sp].d(C)[sp].d(A)[sp].[moe](G)[sp].[moe](C)[sp].[moe](C)[sp].[moe](T)}$$$$V2.0
target mRNA inhibition (HepG2, 0.0092593 µM): 3% | target mRNA inhibition (HepG2, 0.0277778 µM): 11% | target mRNA inhibition (HepG2, 0.0833333 µM): 13% | target mRNA inhibition (HepG2, 0.25 µM): 41%

RNA1{[moe](A)[sp].[cEt](T)[sp].[cEt](G)[sp].d(A)[sp].d(G)[sp].d(G)[sp].d(C)[sp].d(A)[sp].d(T)[sp].d(A)[sp].d(G)[sp].d(C)[sp].d(A)[sp].[cEt](G)[sp].[cEt](C)[sp].[moe](A)}$$$$V2.0
target mRNA inhibition (HepG2, 0.0092593 µM): 13% | target mRNA inhibition (HepG2, 0.0277778 µM): 14% | target mRNA inhibition (HepG2, 0.07 µM): 65% and 83% | target mRNA inhibition (HepG2, 0.0833333 µM): 55% | target mRNA inhibition (HepG2, 0.25 µM): 70%

RNA1{[moe](T)[sp].[moe](G)[sp].[moe](C)[sp].[moe](A)[sp].[moe](G)[sp].d(A)[sp].d(G)[sp].d(G)[sp].d(T)[sp].d(G)[sp].d(A)[sp].d(A)[sp].d(G)[sp].d(C)[sp].[moe](G)[sp].[moe](A)[sp].[moe](A)}$$$$V2.0
target mRNA inhibition (HepG2, 0.07 µM): 55% and 56%

RNA1{[moe](C)[sp].[moe](G)[sp].[moe](C)[sp].d(A)[sp].d(G)[sp].d(T)[sp].d(A)[sp].d(T)[sp].d(G)[sp].d(G)[sp].d(A)[sp].d(T)[sp].[moe](C)[sp].[moe](G)[sp].[moe](G)[sp].[moe](C)[sp].[moe](A)}$$$$V2.0
target mRNA inhibition (HepG2, 0.0092593 µM): 7% | target mRNA inhibition (HepG2, 0.0277778 µM): 38% | target mRNA inhibition (HepG2, 0.07 µM): 85% and 80% | target mRNA inhibition (HepG2, 0.0833333 µM): 78% | target mRNA inhibition (HepG2, 0.25 µM): 89%

RNA1{[moe](T)[sp].[moe](G)[sp].[moe](A)[sp].[moe](A)[sp].d(G)[sp].d(C)[sp].d(G)[sp].d(A)[sp].d(A)[sp].d(G)[sp].d(T)[sp].d(G)[sp].d(C)[sp].[moe](A)[sp].[moe](C)[sp].[moe](A)}$$$$V2.0
target mRNA inhibition (HepG2, 0.07 µM): 43% and 52%

RNA1{[moe](C)[sp].[moe](C)[sp].[moe](A)[sp].[moe](A)[sp].d(T)[sp].d(T)[sp].d(T)[sp].d(A)[sp].d(T)[sp].d(G)[sp].d(C)[sp].d(C)[sp].d(T)[sp].[moe](A)[sp].[moe](C)[sp].[moe](A)[sp].[moe](G)}$$$$V2.0
target mRNA inhibition (HepG2, 0.07 µM): 34% and 11%

RNA1{[moe](A)[sp].[moe](G)[sp].d(T)[sp].d(T)[sp].d(C)[sp].d(C)[sp].d(G)[sp].d(C)[sp].d(A)[sp].d(G)[sp].d(T)[sp].[moe](A)[sp].[moe](T)[sp].[moe](G)[sp].[moe](G)[sp].[moe](A)[sp].[moe](T)}$$$$V2.0
target mRNA inhibition (HepG2, 0.07 µM): 68% and 70%

RNA1{[moe](G)[sp].[moe](G)[sp].[moe](A)[sp].[moe](G)[sp].[moe](T)[sp].d(T)[sp].d(C)[sp].d(C)[sp].d(G)[sp].d(C)[sp].d(A)[sp].d(G)[sp].d(T)[sp].d(A)[sp].[moe](T)[sp].[moe](G)}$$$$V2.0
target mRNA inhibition (HepG2, 0.07 µM): 74% and 50%

RNA1{[moe](A)[sp].[cEt](G)[sp].[cEt](G)[sp].d(T)[sp].d(G)[sp].d(A)[sp].d(A)[sp].d(G)[sp].d(C)[sp].d(G)[sp].d(A)[sp].d(A)[sp].d(G)[sp].[cEt](T)[sp].[cEt](G)[sp].[moe](C)}$$$$V2.0
target mRNA inhibition (HepG2, 0.009375 µM): 21% | target mRNA inhibition (HepG2, 0.01875 µM): 30% | target mRNA inhibition (HepG2, 0.0375 µM): 39% | target mRNA inhibition (HepG2, 0.07 µM): 79% | target mRNA inhibition (HepG2, 0.075 µM): 61% | target mRNA inhibition (HepG2, 0.15 µM): 79% | target mRNA inhibition (HepG2, 0.3 µM): 91%

RNA1{[moe](G)[sp].[moe](C)[sp].[moe](A)[sp].[moe](C)[sp].[moe](T)[sp].d(A)[sp].d(G)[sp].d(T)[sp].d(A)[sp].d(A)[sp].d(A)[sp].d(C)[sp].d(T)[sp].d(G)[sp].[moe](A)[sp].[moe](G)[sp].[moe](C)}$$$$V2.0
target mRNA inhibition (HepG2, 0.07 µM): 58% and 63%
